Results published in patent US7220576B2, “Methods and compositions for protein expression and purification” (Lifesensors, Inc., priority 2002, dated 2007).
Where “and” joins values, the source holds several entries; their conditions need not be identical. Equal entries are not always repeated. Entries after “also recorded” stand apart in the source; their conditions may differ. One block for each molecule: values may come before it. Non-standard residues stand in square brackets, D forms with d. Residues, ends and D or L forms follow the SMILES beside them. *: point of attachment. Sta = CC(C)C[C@H](N)[C@@H](O)CC(=O)O; Isovaleryl = CC(C)CC(=O)*

Legend:
Ulp1 Hydrolase = biological target: T1, Ulp1 Hydrolase (Saccharomyces cerevisiae, UniProt Q02724); assay: In vitro Ulp1 cleavage of His6SUMO-GFP under various additives/conditions; format: biochemical, yeast; conditions: for Ulp1 activity remaining: 0.5 M Gdm HCl, hydrochloride
T1 construct: C-terminal His-tagged SUMO hydrolase/protease Ulp (403–621)p (21) (27) was expressed from pET24d; His tag (C); made in house; host or cells: E. coli Rosetta (DE3) pLysS, vector pET24d
T1 sequence (Q02724 403-621): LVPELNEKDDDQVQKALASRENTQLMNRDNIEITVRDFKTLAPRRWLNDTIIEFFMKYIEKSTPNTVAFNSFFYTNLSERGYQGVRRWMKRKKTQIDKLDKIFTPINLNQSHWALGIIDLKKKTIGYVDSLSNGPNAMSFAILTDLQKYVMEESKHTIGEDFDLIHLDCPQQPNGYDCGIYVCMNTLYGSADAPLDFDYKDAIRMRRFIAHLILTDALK
Method: Ni-NTA purified His6SUMO-GFP was incubated with Ulp1 under the indicated conditions for one hour at room temperature unless indicated otherwise. Low molecular weight markers (LMW) are also provided.
Ni-NTA purified His6SUMO-GFP was incubated with Ulp1 and 10 mM of various protease inhibitors for 1 hour at room temperature. Lane markers: Norm is addition of Ulp1 and N-ethymaleimide (NEM) to the substrate at the same time, Pre is the incubation of Ulp1 with NEM prior to the addition of substrate, +Ve is the absence of any inhibitor, −Ve is in the absence of Ulp1, lane 1 is with E-64, lane 2 is with EDTA, lane 3 is with leupeptin, lane 4 is with NEM, lane 5 is with pepstatin, lane 6 is with TLCK. Low molecular weight markers (LMW) are also provided.
The effects of various additives/conditions and temperature upon the in vitro cleavage reaction were determined as follows: His6smt3MeGFP was expressed from pET24d in Rosetta (DE3) pLysS (Novagen). The recombinant protein was purified as before using Ni-NTA agarose (Qiagen) and then buffer exchanged into 20 mM Tris-HCl pH 8.0, 150 mM NaCl and 5 mM β-mercaptoethanol using a PD-10 column (AP Biotech). Cleavage reactions were performed with 100 ug of the purified protein, 0.5 ul of enzyme, the appropriate amount of a stock solution of additive to generate the final concentrations listed in Table 4, plus the exchange buffer up to a final volume of 200 ul. Reactions were incubated for 1 hour at 37° C. except for those at 4° C. were incubated for 3 hours. […] Generally, His tagged proteins are purified on nickel columns and eluted with imidazole.

E. coli [1] = assay: GFP fluorescence in soluble fractions of E. coli; format: cell-based; conditions: 37° C., approx. 0.1 mg soluble protein, Ex 485 nm/Em 510 nm
Method: GFP fluorescence was measured in soluble fractions (approx. 0.1 mg of soluble protein in a final volume of 40 μl) using Fluoroscan Accent FL fluorometer (LabSystems) with Excitation 485 nm/Emission 510 nm filter set with the exposure set to 40 sec. The data are presented in Arbitrary Units (AU).
The design and construction of all the UBL E. coli expression vectors has been described above. The DNA sequences, accession numbers of the UBL-GFP fusion proteins, and translation frames are shown FIGS. 25–32. […] Un-fused GFP is generally poorly expressed in E. coli. […] Induced cells were broken by sonication and soluble proteins were analyzed on SDS-polyacrylamide gels. […] To determine if the fusion proteins were folded correctly, we determined the fluorescence properties of proteins in the soluble fraction.

SUMO hydrolase Ulp1 = biological target: T2, SUMO hydrolase Ulp1 (Saccharomyces cerevisiae, UniProt Q02724); assay: In vitro cleavage of purified SUMO fusion proteins by SUMO hydrolase Ulp1; format: biochemical, yeast
T2 construct: C-terminal His-tagged SUMO hydrolase/protease Ulp (403–621)p (21) (27) was expressed from pET24d; His tag (C); made in house; host or cells: E. coli Rosetta (DE3) pLysS, vector pET24d
T2 sequence (Q02724 403-621): T1 sequence (Q02724 403-621)

E. coli [2] = assay: Soluble versus insoluble fraction of fusion proteins expressed in E. coli; format: cell-based
Method: E. coli were harvested by mild centrifugation and washed once with PBS buffer. Cells were resuspended in 4 ml of PBS and ruptured by several pulses of sonication. Unbroken cells were removed by mild centrifugation (5 min at 1500×g) and supernatants were sonicated again to ensure complete cell lysis. An aliquot (5 μl) was mixed with 2% SDS to ensure that no viscosity is detected owing to lysis of unbroken cells. After ensuring that no unbroken cells remained in the lysate, insoluble material consisting of cell walls, inclusion bodies and membrane fragments was sedimented by centrifugation (18,000×g for 10 min). The supernatant was considered “Soluble fraction”.
The pellets were washed from any remaining soluble proteins, lipids and peptidoglycan as follows. Pellets were resuspended in 600 μl of PBS and to the suspensions 600 μl of solution containing 3 M urea and 1% Tri ton X100 was added. The suspension was briefly vortexed and insoluble material was collected by centrifugation as above. […]
Human nuclear receptor proteins, such as steroid receptors, contain ligand-binding domains. […] The ligand-binding domain of LXR was expressed as SUMO fusion in Rosetta plysS cell at 20° C. or 37° C. and the pattern of soluble and insoluble protein was analyzed. […] The original induced culture (I), supernatant from lysed cells (S) and resuspended pellet (P) were analyzed on 12% SDS-PAGE. […]

[3] = protease inhibitors, 10 mM per FIG. 17 legend

Effect of protease inhibitor on Ulp1 hydrolase activity (Ulp1 Hydrolase; [3]): Cysteine protease inhibitor; no affect
Molecule: CC(C)C[C@H](NC(=O)[C@H]1O[C@@H]1C(=O)O)C(=O)NCCCCN=C(N)N [E-64]

Molecule: O=C(O)CN(CCN(CC(=O)O)CC(=O)O)CC(=O)O [EDTA]
Effect of protease inhibitor on Ulp1 hydrolase activity (Ulp1 Hydrolase; [3]): no effect; also recorded: Metalloprotease inhibitor; no affect

Ulp1 activity remaining (Ulp1 Hydrolase; listed as guanadinium hydrochloride): 50%
Effect on Ulp1 hydrolase activity (Ulp1 Hydrolase; 1 M Gdm HCl): inactive in 1 M concentrations
Molecule: Cl.N=C(N)N [Gdm HCl, guanadinium hydrochloride]
Ulp1 activity remaining (Ulp1 Hydrolase): Ulp1 shows 50% activity in 0.5 M but is completely

Effect on Ulp1 hydrolase activity (Ulp1 Hydrolase; imidazole 0 to 300 mM, listed as imidazole): remarkably active
Molecule: c1c[nH]cn1 [Imidazole]
Effect on Ulp1 hydrolase activity (Ulp1 Hydrolase; imidazole 0 to 300 mM): Ulp1 shows similar activity in the range of

Molecule: CC(=O)N[C@@H](CC(C)C)C(=O)N[C@@H](CC(C)C)C(=O)N[C@H](C=O)CCCNC(=N)N [Leupeptin]
Effect of protease inhibitor on Ulp1 hydrolase activity (Ulp1 Hydrolase; [3]): no effect; also recorded: like specificity; no affect

Effect of protease inhibitor on Ulp1 hydrolase activity (Ulp1 Hydrolase; enzyme preincubated with inhibitor before addition of substrate, listed as N-ethymaleimide): active
Molecule: CCN1C(=O)C=CC1=O [N-ethylmaleimide]

Molecule: O=S(=O)(F)Cc1ccccc1 [PMSF]
Effect of protease inhibitor on Ulp1 hydrolase activity (Ulp1 Hydrolase; [3]): no effect; also recorded: Serine protease inhibitor; no affect

Molecule: CC(C)CC(=O)N[C@H](C(=O)N[C@H](C(=O)N[C@@H](CC(C)C)[C@@H](O)CC(=O)N[C@@H](C)C(=O)N[C@@H](CC(C)C)[C@@H](O)CC(=O)O)C(C)C)C(C)C [Pepstatin] (Isovaleryl-VV[Sta]A[Sta]-OH)
Effect of protease inhibitor on Ulp1 hydrolase activity (Ulp1 Hydrolase; [3]): no effect; also recorded: Aspartate protease inhibitor; no affect

Molecule: CCCCCCCCCCCCOS(=O)(=O)[O-].[Na+] [SDS]
Effect on Ulp1 hydrolase activity (Ulp1 Hydrolase; 0.01% SDS): highly active and 0.01% SDS blocks activity

Molecule: Cc1ccc(S(=O)(=O)N[C@@H](CCCCN)C(=O)CCl)cc1.Cl [TLCK-HCl]
Effect of protease inhibitor on Ulp1 hydrolase activity (Ulp1 Hydrolase; [3]): chymotrypsin-like specificity; no affect
Effect of protease inhibitor on Ulp1 hydrolase activity (Ulp1 Hydrolase; protease inhibitors, 10 mM per FIG. 17 legend, listed as TLCK): no effect

Molecule: NC(N)=O [Urea]
Effect on Ulp1 hydrolase activity (Ulp1 Hydrolase; urea up to and including 2 M, listed as urea): did not effect the activity; also recorded: does not inhibit the hydrolase

Molecule: SUMO-GFP: SUMO fused to N-terminus of GFP (SEQ ID NO: 5)
GFP fluorescence of soluble fraction (correct folding) (E. coli [1]): able to fluoresce
In vitro cleavage by Ulp1 / SUMO hydrolase (SUMO hydrolase Ulp1; purified fusion protein from E. coli): completely digested
Solubility of UBL-GFP fusion (soluble panel of stained gel) (E. coli [2]; 26° C. overnight, FIG. 4B): able to solubilize fused GFP
Solubility of UBL-GFP fusion (soluble panel of stained gel) (E. coli [2]; 37° C., FIG. 4A): able to solublize the GFP

Share of protein cleaved by SUMO hydrolase (SUMO hydrolase Ulp1; 20 minutes, room temperature): 100%
Molecule: SUMO-β-galactosidase: SUMO fusion of E. coli β-galactosidase, a 110 KDa protein (SEQ ID NO: 31)

Effect on Ulp1 hydrolase activity (Ulp1 Hydrolase; up to 1% triton X 100): highly active
Molecule: Triton-X
